Laboratory results reported in publication PMC4113456, “Atypical Signaling and Functional Desensitization Response of MAS Receptor to Peptide Ligands” (PLoS ONE, 2014).

Molecular target: T1, MAS (Homo sapiens, UniProt P04201)
T1 construct: expressed in transfected cells
T1 sequence (P04201 1-325): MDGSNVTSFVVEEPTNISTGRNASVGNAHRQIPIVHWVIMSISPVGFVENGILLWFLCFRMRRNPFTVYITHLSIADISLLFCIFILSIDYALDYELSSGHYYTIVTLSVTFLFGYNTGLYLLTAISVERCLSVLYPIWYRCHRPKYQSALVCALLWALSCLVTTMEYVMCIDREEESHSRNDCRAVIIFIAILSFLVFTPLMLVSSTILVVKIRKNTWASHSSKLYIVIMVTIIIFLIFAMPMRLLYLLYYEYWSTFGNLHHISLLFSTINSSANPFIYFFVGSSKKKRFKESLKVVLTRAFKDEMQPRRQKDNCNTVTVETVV
Assay: Calcium re-stimulation and antagonism assays, MAS expressing stable cells
Format: cell-based
Description: The assay was performed using FLIPR Calcium 5 assay kit (Molecular Devices, Sunnyvale, CA). For calcium measurements, cells at a density of 125,000 cells/well in 100 µl medium were seeded onto a 96-well clear bottom black cell culture plate that was pre-coated with poly-L-lysine. In the calcium assays the cell density of 125,000 cells/well was consistently maintained to minimize variability between independent experiments. The cells were seeded in induction media to induce MAS expression or in complete media for negative controls. The plate was maintained in a cell culture incubator for 26–28 h. The cells were then serum starved for 2 h by replacing the medium with 100 µl of serum free DMEM. In the case of pre-treatment with pan-inhibitor of G protein signaling, BIM-46187, the cells were initially serum starved for 1 h by replacing the medium with 50 µl of serum free DMEM. After 1 h, 50 µl of BIM-46187 was added to the cells to a final concentration of 25 µM and treated for another 1 h. Following serum starvation, 100 µl of calcium sensitive dye along with 2x (2.5 mM final concentration) probenecid (Life Technologies, Grand Island, NY) was added to the cells. During this step, AR-inverse agonist or BIM-46187 was also added at desired concentrations to the calcium dye preparation in case of experiments where cells were pre-treated with these inhibitors. The cells were maintained for one hour in the cell culture incubator. […] The instrument was programmed in FLEX mode to add ligands (50 µl at 5x concentration) to the cells and to monitor the fluorescence before and after adding the ligands. […]
For re-stimulation assays, the data is expressed as the percentage of maximum agonist stimulation to allow for ready comparison between individual experiments. For the IP1 assay, a standard curve was generated using the 4-Parameter logistic equation fit of the HTRF readings of IP1 standards using the SoftMax Pro software. […] In the luciferase assay, the luminescence measurements (RLU) are presented as a ratio of firefly to renilla luciferase activity. […]

| SMILES | Response to second agonist (NPFF or AR-agonist) after first stimulation with the ligand (re-stimulation assay, second ligand at 600 s) | Inhibition of NPFF calcium response (first ligand at 25 µM, then NPFF) | Inhibition of AR-agonist calcium dose-response by pre-treatment (pre-treatment at 25 µM) |
| --- | --- | --- | --- |
| COc1cc([N+](=O)[O-])ccc1S(=O)(=O)N1CC(CN2CCN(c3ccccn3)CC2)C(c2cccc(F)c2)C1 (stereo not drawn) [AR-agonist] | did not respond | – | – |
| C=CCCN1CCC2(CC1)CN(C(=O)c1c(F)cccc1F)c1ccc(Cl)cc12 [AR-inverse] | – | completely inhibited | complete inhibition |
